From ChEMBL document CHEMBL4190383, “Hit discovery of Mycobacterium tuberculosis inosine 5'-monophosphate dehydrogenase, GuaB2, inhibitors” (Bioorg Med Chem Lett, 2018)
≈ marks a conversion by molar mass, not a printed value. Calls of active or inactive are those of the source. The calls are words filed in the database; no cut-off is given here.

Legend:
Staphylococcus aureus = experiment: Growth inhibition of methicillin-resistant Staphylococcus aureus at 32 ug/ml; format: functional; settings: read-out: GI
[1] = target: Inosine-5'-monophosphate dehydrogenase 2 (Homo sapiens) (UniProt P12268); experiment: Inhibition of human IMPDH2 at 10 uM
Chain of Inosine-5'-monophosphate dehydrogenase 2 (Homo sapiens) (P12268 2-514 limits assumed): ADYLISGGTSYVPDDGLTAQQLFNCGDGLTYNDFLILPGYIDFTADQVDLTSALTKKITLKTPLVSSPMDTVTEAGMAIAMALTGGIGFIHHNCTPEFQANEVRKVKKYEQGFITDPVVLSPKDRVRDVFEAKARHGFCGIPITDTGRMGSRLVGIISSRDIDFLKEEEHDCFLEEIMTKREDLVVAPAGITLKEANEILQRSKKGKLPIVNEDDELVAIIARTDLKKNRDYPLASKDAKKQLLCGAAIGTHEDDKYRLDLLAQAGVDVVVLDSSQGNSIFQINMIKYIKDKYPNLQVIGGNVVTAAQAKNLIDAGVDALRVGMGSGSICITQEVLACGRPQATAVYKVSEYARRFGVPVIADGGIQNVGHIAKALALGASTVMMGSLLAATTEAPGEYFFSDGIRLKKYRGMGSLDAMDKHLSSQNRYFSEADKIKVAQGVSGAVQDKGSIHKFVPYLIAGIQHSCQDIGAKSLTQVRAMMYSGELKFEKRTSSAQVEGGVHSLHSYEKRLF

[2] = Octanol/water partition coefficient , logP of the compound; format: physicochemical
Acinetobacter baumannii = experiment: Growth inhibition of Acinetobacter baumannii at 32 ug/ml; format: functional; settings: read-out: GI
Candida albicans = experiment: Growth inhibition of Candida albicans at 32 ug/ml; format: functional; settings: read-out: GI
[3] = test system: Mycobacterium tuberculosis; experiment: Antimicrobial activity against Mycobacterium tuberculosis SRMV2.6 H37Rv by alamar blue assay; format: functional
Escherichia coli = experiment: Growth inhibition of Escherichia coli at 32 ug/ml; format: functional; settings: read-out: GI
Klebsiella pneumoniae = experiment: Growth inhibition of Klebsiella pneumoniae at 32 ug/ml; format: functional; settings: read-out: GI
[4] = test system: Mycobacterium tuberculosis; experiment: Antimicrobial activity against Mycobacterium tuberculosis H37Rv by alamar blue assay; format: functional
[5] = test system: Mycobacterium tuberculosis; experiment: Inhibition of Mycobacterium tuberculosis GuaB2 at 50 uM
[6] = test system: Mycobacterium tuberculosis; experiment: Antimicrobial activity against Mycobacterium tuberculosis H37Rv in presence of 0.31 ng/ml anhydrotetracycline-induced guaB2 gene silencing by alamar blue assay; format: functional
[7] = test system: Mycobacterium tuberculosis; experiment: Antimicrobial activity against Mycobacterium tuberculosis H37Rv in presence of 0.15 ng/ml anhydrotetracycline-induced guaB2 gene silencing by alamar blue assay; format: functional
Pseudomonas aeruginosa = experiment: Growth inhibition of Pseudomonas aeruginosa at 32 ug/ml; format: functional; settings: read-out: GI
[8] = Inhibition of Mycobacterium tuberculosis GuaB2
Cryptococcus neoformans = experiment: Growth inhibition of Cryptococcus neoformans var. grubii at 32 ug/ml; format: functional; settings: read-out: GI
[9] = test system: Mycobacterium tuberculosis; experiment: Antimicrobial activity against Mycobacterium tuberculosis H37Rv in presence of 0.08 to 5 ng/ml anhydrotetracycline-induced guaB2 gene silencing by alamar blue assay; format: functional, organism-based

`O=C(Cc1ccc(F)c2ccccc12)Nc1ccc2c(c1)COC2=O` showed an inhibition of growth at 32 µg/mL (Staphylococcus aureus) of 2.37%, an inhibition [1] of 0.1% and a logP [2] of 2.5 to 3.5. The inhibition of growth at 32 µg/mL (Acinetobacter baumannii) was -2.02%, the inhibition of growth at 32 µg/mL (Candida albicans) was 5.47% and the MIC90 [3] was 100 µM (≈ 33.5 µg/mL). It also gave an inhibition of growth at 32 µg/mL (Escherichia coli) of -4.49%, an inhibition of growth at 32 µg/mL (Klebsiella pneumoniae) of 13.4% and an MIC90 [4] of 100 µM (≈ 33.5 µg/mL). The inhibition [5] was 99.9%, the MIC [6] was 12.5 µM and the MIC [7] was 12.5 µM. It also gave an inhibition of growth at 32 µg/mL (Pseudomonas aeruginosa) of -3.45%, an IC50 [8] of 3.04 µM and an inhibition of growth at 32 µg/mL (Cryptococcus neoformans) of -49.8%. For the same molecule, the Activity [9] was “Active”.
